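Where inhibition never reached the appropriate level, the endpoint shown equals the highest concentration tested. Otherwise, values were interpolated linearly from a five-concentration, 48-hour dose response in 96-well plates. GI50 = concentration required for 50% inhibition of growth.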 Active and inactive are the calls of the source. Rule as the data show it: active = GI50 up to about 1.1 µM and inactive = higher.
How the values were obtained:
Assay in all cases: DTP human tumour cell line panel, 48 h
786-0 = tested on: 786-0
A498 = tested on: A498
A549 = tested on: A549
ACHN = tested on: ACHN
CAKI-1 = tested on: CAKI-1
CCRF-CEM = tested on: CCRF-CEM
COLO 205 = tested on: COLO 205
DLD-1 = tested on: DLD-1
DMS-114 = tested on: DMS-114
DMS-273 = tested on: DMS-273
EKVX = tested on: EKVX
HCC 2998 = tested on: HCC 2998
HCT-116 = tested on: HCT-116
HCT-15 = tested on: HCT-15
HL-60 = tested on: HL-60
HOP-62 = tested on: HOP-62
HT-29 = tested on: HT-29
IGROV-1 = tested on: IGROV-1
K562 = tested on: K562
KM-20L2 = tested on: KM-20L2
KM12 = tested on: KM12
LOX IMVI = tested on: LOX IMVI
LXFL 529 = tested on: LXFL 529
M14 = tested on: M14
M19-MEL = tested on: M19-MEL
MOLT-4 = tested on: MOLT-4
Malme-3M = tested on: Malme-3M
NCI-H226 = tested on: NCI-H226
NCI-H23 = tested on: NCI-H23
NCI-H460 = tested on: NCI-H460
NCI-H522 = tested on: NCI-H522
OVCAR-3 = tested on: OVCAR-3
OVCAR-4 = tested on: OVCAR-4
OVCAR-5 = tested on: OVCAR-5
OVCAR-8 = tested on: OVCAR-8
RPMI-8226 = tested on: RPMI-8226
RXF 393 = tested on: RXF 393
SF-268 = tested on: SF-268
SF-295 = tested on: SF-295
SF-539 = tested on: SF-539
SK-MEL-28 = tested on: SK-MEL-28
SK-MEL-2 = tested on: SK-MEL-2
SK-MEL-5 = tested on: SK-MEL-5
SK-OV-3 = tested on: SK-OV-3
SN12C = tested on: SN12C
SNB-19 = tested on: SNB-19
SNB-75 = tested on: SNB-75
SNB-78 = tested on: SNB-78
SR = tested on: SR
SW-620 = tested on: SW-620
TK-10 = tested on: TK-10
U-251 = tested on: U-251
UACC-257 = tested on: UACC-257
UACC-62 = tested on: UACC-62
UO-31 = tested on: UO-31
XF498 = tested on: XF498
HOP-18 = tested on: HOP-18
HOP-92 = tested on: HOP-92

N#CC(/C(=N/NC(=N)N)C(=O)Nc1ccccc1[N+](=O)[O-])c1nc(-c2ccc([N+](=O)[O-])cc2)cs1 (stereo not given)
GI50 (786-0): > 100 µM (inactive) | GI50 (A498): > 100 µM (inactive) | GI50 (A549): > 100 µM (inactive) | GI50 (ACHN): > 100 µM (inactive) | GI50 (CAKI-1): > 100 µM (inactive) | GI50 (CCRF-CEM): > 100 µM (inactive) | GI50 (COLO 205): > 100 µM (inactive) | GI50 (DLD-1): > 100 µM (inactive) | GI50 (DMS-114): > 100 µM (inactive) | GI50 (DMS-273): > 100 µM (inactive) | GI50 (EKVX): > 100 µM (inactive) | GI50 (HCC 2998): > 100 µM (inactive) | GI50 (HCT-116): > 100 µM (inactive) | GI50 (HCT-15): > 100 µM | GI50 (HL-60): > 100 µM (inactive) | GI50 (HOP-62): > 100 µM (inactive) | GI50 (HT-29): > 100 µM (inactive) | GI50 (IGROV-1): > 100 µM (inactive) | GI50 (K562): > 100 µM (inactive) | GI50 (KM-20L2): > 100 µM (inactive) | GI50 (KM12): > 100 µM (inactive) | GI50 (LOX IMVI): > 100 µM (inactive) | GI50 (LXFL 529): > 100 µM (inactive) | GI50 (M14): > 100 µM (inactive) | GI50 (M19-MEL): > 100 µM (inactive) | GI50 (MOLT-4): > 100 µM (inactive) | GI50 (Malme-3M): > 100 µM (inactive) | GI50 (NCI-H226): > 100 µM (inactive) | GI50 (NCI-H23): > 100 µM (inactive) | GI50 (NCI-H460): > 100 µM (inactive) | GI50 (NCI-H522): > 100 µM (inactive) | GI50 (OVCAR-3): > 100 µM (inactive) | GI50 (OVCAR-4): > 100 µM (inactive) | GI50 (OVCAR-5): > 100 µM (inactive) | GI50 (OVCAR-8): > 100 µM (inactive) | GI50 (RPMI-8226): > 100 µM (inactive) | GI50 (RXF 393): > 100 µM (inactive) | GI50 (SF-268): > 100 µM (inactive) | GI50 (SF-295): > 100 µM (inactive) | GI50 (SF-539): > 100 µM (inactive) | GI50 (SK-MEL-28): > 100 µM (inactive) | GI50 (SK-MEL-2): > 100 µM (inactive) | GI50 (SK-MEL-5): > 100 µM (inactive) | GI50 (SK-OV-3): > 100 µM (inactive) | GI50 (SN12C): > 100 µM (inactive) | GI50 (SNB-19): > 100 µM (inactive) | GI50 (SNB-75): > 100 µM (inactive) | GI50 (SNB-78): > 100 µM (inactive) | GI50 (SR): > 100 µM (inactive) | GI50 (SW-620): > 100 µM (inactive) | GI50 (TK-10): > 100 µM (inactive) | GI50 (U-251): > 100 µM (inactive) | GI50 (UACC-257): > 100 µM (inactive) | GI50 (UACC-62): > 100 µM (inactive) | GI50 (UO-31): > 100 µM (inactive) | GI50 (XF498): > 100 µM (inactive)

Cc1ccc(NC(=O)CC/C(CC(=O)C(C)(C)C)=N/NC(=O)C[N+](C)(C)C)cc1C
GI50 (786-0): 18.2 µM (inactive) | GI50 (A549): 21.7 µM (inactive) | GI50 (ACHN): > 100 µM (inactive) | GI50 (CAKI-1): > 100 µM (inactive) | GI50 (CCRF-CEM): > 100 µM (inactive) | GI50 (COLO 205): > 100 µM (inactive) | GI50 (DLD-1): > 100 µM (inactive) | GI50 (DMS-114): > 100 µM (inactive) | GI50 (EKVX): > 100 µM (inactive) | GI50 (HCC 2998): > 100 µM (inactive) | GI50 (HCT-116): > 100 µM (inactive) | GI50 (HCT-15): > 100 µM | GI50 (HL-60): > 100 µM (inactive) | GI50 (HOP-18): > 100 µM (inactive) | GI50 (HOP-62): > 100 µM (inactive) | GI50 (HT-29): > 100 µM (inactive) | GI50 (IGROV-1): > 100 µM (inactive) | GI50 (K562): > 100 µM (inactive) | GI50 (KM-20L2): > 100 µM (inactive) | GI50 (KM12): > 100 µM (inactive) | GI50 (LOX IMVI): > 100 µM (inactive) | GI50 (LXFL 529): > 100 µM (inactive) | GI50 (M14): > 100 µM (inactive) | GI50 (M19-MEL): > 100 µM (inactive) | GI50 (MOLT-4): > 100 µM (inactive) | GI50 (Malme-3M): > 100 µM (inactive) | GI50 (NCI-H226): > 100 µM (inactive) | GI50 (NCI-H23): > 100 µM (inactive) | GI50 (NCI-H460): > 100 µM (inactive) | GI50 (OVCAR-3): > 100 µM (inactive) | GI50 (OVCAR-4): > 100 µM (inactive) | GI50 (OVCAR-5): > 100 µM (inactive) | GI50 (OVCAR-8): > 100 µM (inactive) | GI50 (RXF 393): > 100 µM (inactive) | GI50 (SF-268): > 100 µM (inactive) | GI50 (SF-295): > 100 µM (inactive) | GI50 (SF-539): 18.6 µM (inactive) | GI50 (SK-MEL-28): > 100 µM (inactive) | GI50 (SK-MEL-2): > 100 µM (inactive) | GI50 (SK-MEL-5): > 100 µM (inactive) | GI50 (SK-OV-3): > 100 µM (inactive) | GI50 (SN12C): > 100 µM (inactive) | GI50 (SNB-19): > 100 µM (inactive) | GI50 (SNB-78): > 100 µM (inactive) | GI50 (SR): 84.1 µM (inactive) | GI50 (SW-620): > 100 µM (inactive) | GI50 (TK-10): > 100 µM (inactive) | GI50 (U-251): > 100 µM (inactive) | GI50 (UACC-257): > 100 µM (inactive) | GI50 (UACC-62): > 100 µM (inactive) | GI50 (UO-31): > 100 µM (inactive)

Cc1cc(-c2ccc(/N=N/c3ccc4c(S(=O)(=O)O)cc(S(=O)(=O)O)c(N)c4c3O)c(C)c2)ccc1/N=N/c1ccc2c(S(=O)(=O)O)cc(S(=O)(=O)O)c(N)c2c1O
GI50 (CCRF-CEM): > 100 µM (inactive) | GI50 (COLO 205): > 100 µM (inactive) | GI50 (DLD-1): > 100 µM (inactive) | GI50 (DMS-114): > 100 µM (inactive) | GI50 (HCT-116): > 100 µM (inactive) | GI50 (HOP-62): > 100 µM (inactive) | GI50 (HOP-92): > 100 µM (inactive) | GI50 (IGROV-1): > 100 µM (inactive) | GI50 (KM12): > 100 µM (inactive) | GI50 (LOX IMVI): > 100 µM (inactive) | GI50 (MOLT-4): > 100 µM (inactive) | GI50 (Malme-3M): > 100 µM (inactive) | GI50 (OVCAR-4): > 63.4 µM (inactive) | GI50 (RPMI-8226): > 100 µM (inactive) | GI50 (SK-MEL-5): > 100 µM (inactive) | GI50 (SNB-19): > 100 µM (inactive) | GI50 (SNB-75): > 100 µM (inactive) | GI50 (SNB-78): > 100 µM (inactive) | GI50 (UACC-62): > 100 µM (inactive) | GI50 (XF498): > 100 µM (inactive)

NC(CCCNCc1ccccc1O)C(=O)O (stereo not given)
GI50 (786-0): > 100 µM (inactive) | GI50 (A498): > 100 µM (inactive) | GI50 (A549): > 100 µM (inactive) | GI50 (ACHN): > 100 µM (inactive) | GI50 (CAKI-1): > 100 µM (inactive) | GI50 (CCRF-CEM): > 100 µM (inactive) | GI50 (COLO 205): > 100 µM (inactive) | GI50 (DLD-1): > 100 µM (inactive) | GI50 (DMS-114): > 100 µM (inactive) | GI50 (DMS-273): > 100 µM (inactive) | GI50 (EKVX): > 100 µM (inactive) | GI50 (HCT-116): > 100 µM (inactive) | GI50 (HCT-15): > 100 µM | GI50 (HL-60): > 100 µM (inactive) | GI50 (HOP-18): > 100 µM (inactive) | GI50 (HOP-62): > 100 µM (inactive) | GI50 (HOP-92): > 100 µM (inactive) | GI50 (HT-29): > 100 µM (inactive) | GI50 (IGROV-1): > 100 µM (inactive) | GI50 (K562): > 100 µM (inactive) | GI50 (KM-20L2): > 100 µM (inactive) | GI50 (KM12): > 100 µM (inactive) | GI50 (LOX IMVI): > 100 µM (inactive) | GI50 (LXFL 529): > 100 µM (inactive) | GI50 (M14): > 100 µM (inactive) | GI50 (M19-MEL): > 100 µM (inactive) | GI50 (MOLT-4): > 100 µM (inactive) | GI50 (Malme-3M): > 100 µM (inactive) | GI50 (NCI-H226): > 100 µM (inactive) | GI50 (NCI-H23): > 100 µM (inactive) | GI50 (NCI-H460): > 100 µM (inactive) | GI50 (NCI-H522): > 100 µM (inactive) | GI50 (OVCAR-3): > 100 µM (inactive) | GI50 (OVCAR-4): > 100 µM (inactive) | GI50 (OVCAR-5): > 100 µM (inactive) | GI50 (OVCAR-8): > 100 µM (inactive) | GI50 (RPMI-8226): > 100 µM (inactive) | GI50 (SF-268): > 100 µM (inactive) | GI50 (SF-295): > 100 µM (inactive) | GI50 (SF-539): > 100 µM (inactive) | GI50 (SK-MEL-28): > 100 µM (inactive) | GI50 (SK-MEL-2): > 100 µM (inactive) | GI50 (SK-MEL-5): > 100 µM (inactive) | GI50 (SK-OV-3): > 100 µM (inactive) | GI50 (SN12C): > 100 µM (inactive) | GI50 (SNB-19): > 100 µM (inactive) | GI50 (SNB-75): > 100 µM (inactive) | GI50 (SNB-78): > 100 µM (inactive) | GI50 (SW-620): > 100 µM (inactive) | GI50 (TK-10): > 100 µM (inactive) | GI50 (UACC-257): > 100 µM (inactive) | GI50 (UACC-62): > 100 µM (inactive) | GI50 (UO-31): > 100 µM (inactive)
